In the assay the test system is rat small intestine. Put plainly: In vivo small intestinal perfusion: FITC-LPS transport into portal vein and mesenteric lymph during OA/TCA exposure. The following applies: for AUC0-90 of PV FITC-LPS / AUC0-90 of lymph FITC-LPS: OA/TCA-augmented, 0-90 min; for OA/TCA-induced FITC-LPS transport into the PV: intraduodenal FITC-LPS 50 μg/ml + OA 30 mM/TCA 10 mM, anesthetized rats; for FITC-LPS transport into the lymph: intraduodenal FITC-LPS + OA/TCA; for TDG-related augmentation of FITC-LPS transport into the lymph: L-NAME 0.1 mM perfused or PG97-269 0.3 mg/kg iv before TDG; for inhibitory effect of TDG on FITC-LPS transport into the PV: L-NAME 0.1 mM perfused or PG97-269 0.3 mg/kg iv before TDG 50 μg/kg iv; for AUC0-90 of lymph FITC-LPS compared with the +TDG group / TDG-induced reduction of AUC0-90 PV FITC-LPS / lymph output in TDG-treated rats: L-NAME or PG97-269 before TDG. As for the experimental part:
In vivo small intestinal perfusion. Intraduodenal perfusions combined with PV and mesenteric lymph cannulation were carried out (1, 48). Under isoflurane anesthesia (2%), the animal was placed supine on a recirculating heating block system (Summit Medical Systems, Bend, Oreg., USA) in order to maintain body temperature at 36-37° C. Prewarmed saline was infused via the right femoral vein at 1.08 ml/h using a Harvard infusion pump (Harvard Apparatus, Holliston, Mass., USA). The abdomen was incised, and the PV was cannulated with a polyethylene (PE)-50 tube attached with 23G needle and fixed by methylacrylate adhesive at the insertion site. The tube was filled with heparinized saline enabling repeated blood sampling. PV samples (0.2 ml each) were collected every 15 min, followed by 0.2 ml flushes with heparinized saline. […] The lymph solution was continuously collected into a 1.5-ml tube every 15 min. A polyethylene tube (diameter 5 mm) filled with PBS was inserted through the forestomach and tied at 0.5 cm caudal from the pyloric ring. After bolus perfusion of 2 ml PBS into the duodenum from the tube, followed by stabilization for ˜30 min, the time was set as t=0 min. FITC-LPS (50 μg/ml) in 2-ml PBS with or without OA (30 mM) and TCA (10 mM) was bolus perfused at t=0 min. In order to maintain lymph flow, 2-ml PBS was perfused every 30 min. PV and lymph samples were collected every 15 min for 90 min. Blood samples were collected in a 0.5-ml tube containing 1 μl each of EDTA (0.5 M), and immediately centrifuged at 5,000 × g for 5 min, after which the plasma was stored at −80° C. until use. The lymph solution was weighed to measure its volume and centrifuged, with the supernatant stored at −80° C. until use. At 90 min, after collection of PV and lymph samples, arterial blood was taken from abdominal aorta for a reference sample, followed by euthanasia by thoracotomy.
The appearance of FITC-LPS into the PV plasma and lymph was assessed by fluorescence measurement using Synergy-2. Fluorescence intensity in the t=0 sample as background was subtracted from the fluorescence values measured in other time point samples. For lymph samples, the FITC-LPS concentration was multiplied by the lymph output in order to calculate total FITC-LPS appearance. FITC-LPS appearance was expressed as PV FITC-LPS content (ng/ml) or FITC-LPS transport into lymph (ng/15 min). Furthermore, total FITC-LPS transport into the PV and lymph was assessed by calculating the area under the curve (AUC) during 0-90 min of FITC-LPS appearance (AUC0-90) using the trapezoidal rule and expressed as AUC0-90 of PV FITC-LPS (μg·min/ml) and AUC0-90 of lymph FITC-LPS (μg).
Intestinal perfusion study: drug treatment. The lipid raft inhibitor MβCD (1 mM), the CD36 inhibitor SSO (1 mM), and PL81 (3%) were added to the initial perfusion of 2-ml PBS at t=−30 min, followed by their addition to the luminal FITC-LPS/OA/TCA solution at t=0 min.
Effect of TDG on intestinal LPS transport. The stable, DPP4-resistant analog of GLP-2, TDG (13) was used to examine the acute effect of GLP-2 on LPS transport into PV and mesenteric lymph in vivo. TDG (50 μg/kg) was bolus injected iv 15 min before the luminal FITC-LPS/OA/TCA perfusion (at t=−15 min). L-NAME was added to the first perfusion of 2 ml PBS (at t=−30 min). PG97-269 (0.3 mg/kg) was bolus injected iv 20 min before the luminal FITC-LPS/OA/TCA perfusion (at t=−20 min).

In the case of `CC[C@H](C)[C@H](NC(=O)[C@H](Cc1ccccc1)NC(=O)[C@H](CC(=O)O)NC(=O)[C@H](CCCNC(=N)N)NC(=O)[C@H](C)NC(=O)[C@H](C)NC(=O)[C@H](CC(C)C)NC(=O)[C@H](CC(N)=O)NC(=O)[C@H](CC(=O)O)NC(=O)[C@H](CC(C)C)NC(=O)[C@@H](NC(=O)[C@@H](NC(=O)[C@H](CC(N)=O)NC(=O)[C@H](CCSC)NC(=O)[C@H](CCC(=O)O)NC(=O)[C@H](CC(=O)O)NC(=O)[C@H](CO)NC(=O)[C@H](Cc1ccccc1)NC(=O)[C@H](CO)NC(=O)CNC(=O)[C@H](CC(=O)O)NC(=O)CNC(=O)[C@@H](N)Cc1c[nH]cn1)[C@@H](C)O)[C@@H](C)CC)C(=O)N[C@@H](CC(N)=O)C(=O)N[C@@H](Cc1c[nH]c2ccccc12)C(=O)N[C@@H](CC(C)C)C(=O)N[C@H](C(=O)N[C@@H](CCC(N)=O)C(=O)N[C@H](C(=O)N[C@@H](CCCCN)C(=O)N[C@H](C(=O)N[C@H](C(=O)N[C@@H](CC(=O)O)C(=O)O)[C@@H](C)O)[C@@H](C)CC)[C@@H](C)O)[C@@H](C)CC` [TDG], the “AUC0-90 of PV FITC-LPS” value is reported as “reduced”, the “AUC0-90 of lymph FITC-LPS” value is on record as “no significant effect”, the “OA/TCA-induced FITC-LPS transport into the PV” value is “abolished” and the “FITC-LPS transport into the lymph” value is listed as “rapidly increased”. Moreover, the lymphatic output result (t=0-30 min, TDG 50 μg/kg iv at t=-15 min vs non-pretreated controls) was “rapid increase”.
As to “[Ac-His^1, D-Phe^2, Lys^15, Arg^16, Leu^27]-VIP(1-7)-GRF(8-27) (HFDAVFTNSYRKVLKRLSARKLLQDIL; HELM PEPTIDE1{[ac].H.[dF].D.A.V.F.T.N.S.Y.R.K.V.L.K.R.L.S.A.R.K.L.L.Q.D.I.L.[am]}$$$$V2.0; SMILES CC[C@H](C)[C@H](NC(=O)[C@H](CC(=O)O)NC(=O)[C@H](CCC(N)=O)NC(=O)[C@H](CC(C)C)NC(=O)[C@H](CC(C)C)NC(=O)[C@H](CCCCN)NC(=O)[C@H](CCCNC(=N)N)NC(=O)[C@H](C)NC(=O)[C@H](CO)NC(=O)[C@H](CC(C)C)NC(=O)[C@H](CCCNC(=N)N)NC(=O)[C@H](CCCCN)NC(=O)[C@H](CC(C)C)NC(=O)[C@@H](NC(=O)[C@H](CCCCN)NC(=O)[C@H](CCCNC(=N)N)NC(=O)[C@H](Cc1ccc(O)cc1)NC(=O)[C@H](CO)NC(=O)[C@H](CC(N)=O)NC(=O)[C@@H](NC(=O)[C@H](Cc1ccccc1)NC(=O)[C@@H](NC(=O)[C@H](C)NC(=O)[C@H](CC(=O)O)NC(=O)[C@@H](Cc1ccccc1)NC(=O)[C@H](Cc1c[nH]cn1)NC(C)=O)C(C)C)[C@@H](C)O)C(C)C)C(=O)N[C@@H](CC(C)C)C(N)=O) [PG97-269]”, the “TDG-related augmentation of FITC-LPS transport into the lymph” value was “inhibited”, the “inhibitory effect of TDG on FITC-LPS transport into the PV” value is given as “no effect”, the “AUC0-90 of lymph FITC-LPS compared with the +TDG group” value was “reduced” and the “TDG-induced reduction of AUC0-90 PV FITC-LPS” value is given as “no effect”. The “lymph output in TDG-treated rats” value was “reduced”.
With methyl-β-cyclodextrin [MβCD], the “AUC0-90 of PV FITC-LPS” value is listed as “abolished”, the “AUC0-90 of lymph FITC-LPS” value is listed as “no effect”, the “OA/TCA-induced FITC-LPS transport into the PV” value is “abolished” and the “FITC-LPS transport into the lymph” value was “no effect”.
Take `COC(=O)[C@@H](N)CCCNC(=N)N[N+](=O)[O-]` [L-NAME, Nω-nitro-L-arginine methyl ester]: the “TDG-related augmentation of FITC-LPS transport into the lymph” value was “inhibited”, the “inhibitory effect of TDG on FITC-LPS transport into the PV” value is recorded as “reduced”, the “AUC0-90 of lymph FITC-LPS compared with the +TDG group” value was “reduced” and the “TDG-induced reduction of AUC0-90 PV FITC-LPS” value is “reversed”. Also, the “lymph output in TDG-treated rats” value is listed as “reduced”.
Regarding `CCCCCCCC/C=C\CCCCCCCC(=O)ON1C(=O)CC(S(=O)(=O)O)C1=O` (centres unmarked) [SSO, sulfosuccinimidyl oleate], the “AUC0-90 of PV FITC-LPS” value is recorded as “failed to affect”, the “AUC0-90 of lymph FITC-LPS” value is reported as “no effect”, the “OA/TCA-induced FITC-LPS transport into the PV” value was “inhibited” and the “FITC-LPS transport into the lymph” value was “no effect”.

Values taken from patent US20220257722A1, “COMPOSITIONS AND METHODS OF TREATING AND PREVENTING SYSTEMIC COMPLICATIONS OF ACUTE ILLNESS” (United States Government As Represented By The Department …, priority 2019, published 2022).
